From the supplement of paper PMC11451515

Tested on: SEM cells
Assay: cell viability relative to DMSO control; higher = less cytotoxic
Details: 48 h
Method in brief: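 Viability values are per-plate percentages of DMSO wells, with background from cell-free wells. Library compounds in DMSO were pin-dosed, in an 11-point threefold series from 47 μM to 0.79 nM, onto NOMO1 or SEM (500 cells/well) or P12-Ichikawa (1000 cells/well) leukemia cells in 1536-well plates (5 μl). Those cells had been adapted for at least four passages in each medium, and CellTiter-Glo One luminescence was read after 48 h at 37°C.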

[1] = HPLM + 10% dialyzed FBS, 0.000781 µM
[2] = HPLM + 10% dialyzed FBS, 0.00234 µM
[3] = HPLM + 10% dialyzed FBS, 0.00702 µM
[4] = HPLM + 10% dialyzed FBS, 0.0211 µM
[5] = HPLM + 10% dialyzed FBS, 0.0632 µM
[6] = HPLM + 10% dialyzed FBS, 0.19 µM
[7] = HPLM + 10% dialyzed FBS, 0.569 µM
[8] = HPLM + 10% dialyzed FBS, 1.71 µM
[9] = HPLM + 10% dialyzed FBS, 5.12 µM
[10] = HPLM + 10% dialyzed FBS, 15.4 µM
[11] = HPLM + 10% dialyzed FBS, 46.1 µM
[12] = RPMI 5 mM glucose + 10% FBS, 0.000781 µM
[13] = RPMI 5 mM glucose + 10% FBS, 0.00234 µM
[14] = RPMI 5 mM glucose + 10% FBS, 0.00702 µM
[15] = RPMI 5 mM glucose + 10% FBS, 0.0211 µM
[16] = RPMI 5 mM glucose + 10% FBS, 0.0632 µM
[17] = RPMI 5 mM glucose + 10% FBS, 0.19 µM
[18] = RPMI 5 mM glucose + 10% FBS, 0.569 µM
[19] = RPMI 5 mM glucose + 10% FBS, 1.71 µM
[20] = RPMI 5 mM glucose + 10% FBS, 5.12 µM
[21] = RPMI 5 mM glucose + 10% FBS, 15.4 µM
[22] = RPMI 5 mM glucose + 10% FBS, 46.1 µM
[23] = RPMI 5 mM glucose + 10% dialyzed FBS, 0.000781 µM
[24] = RPMI 5 mM glucose + 10% dialyzed FBS, 0.00234 µM
[25] = RPMI 5 mM glucose + 10% dialyzed FBS, 0.00702 µM
[26] = RPMI 5 mM glucose + 10% dialyzed FBS, 0.0211 µM
[27] = RPMI 5 mM glucose + 10% dialyzed FBS, 0.0632 µM
[28] = RPMI 5 mM glucose + 10% dialyzed FBS, 0.19 µM
[29] = RPMI 5 mM glucose + 10% dialyzed FBS, 0.569 µM
[30] = RPMI 5 mM glucose + 10% dialyzed FBS, 1.71 µM
[31] = RPMI 5 mM glucose + 10% dialyzed FBS, 5.12 µM
[32] = RPMI 5 mM glucose + 10% dialyzed FBS, 15.4 µM
[33] = RPMI 5 mM glucose + 10% dialyzed FBS, 46.1 µM

| Compound | cell viability [1] [%] | cell viability [2] [%] | cell viability [3] [%] | cell viability [4] [%] | cell viability [5] [%] | cell viability [6] [%] | cell viability [7] [%] | cell viability [8] [%] | cell viability [9] [%] | cell viability [10] [%] | cell viability [11] [%] | cell viability [12] [%] | cell viability [13] [%] | cell viability [14] [%] | cell viability [15] [%] | cell viability [16] [%] | cell viability [17] [%] | cell viability [18] [%] | cell viability [19] [%] | cell viability [20] [%] | cell viability [21] [%] | cell viability [22] [%] | cell viability [23] [%] | cell viability [24] [%] | cell viability [25] [%] | cell viability [26] [%] | cell viability [27] [%] | cell viability [28] [%] | cell viability [29] [%] | cell viability [30] [%] | cell viability [31] [%] | cell viability [32] [%] | cell viability [33] [%] |
| --- | --- | --- | --- | --- | --- | --- | --- | --- | --- | --- | --- | --- | --- | --- | --- | --- | --- | --- | --- | --- | --- | --- | --- | --- | --- | --- | --- | --- | --- | --- | --- | --- | --- |
| O=C(O)CCCCC(CCSCc1ccccc1)SCc1ccccc1 (centres undefined) | 87.7 | 116 | 111 | 110 | 104 | 115 | 113 | 131 | 111 | 119 | 102 | 106 | 102 | 91.5 | 101 | 118 | 124 | 110 | 121 | 115 | 107 | 99.6 | 100 | 106 | 121 | 138 | 116 | 117 | 108 | 125 | 117 | 108 | 93.5 |
| CC1=C(/C=C/C(C)=C/C=C/C(C)=C\C(=O)O)C(C)(C)CCC1 | 82.8 | 84.8 | 67.9 | 103 | 98.1 | 96.7 | 101 | 91.5 | 44.3 | 80.1 | 78.5 | 85 | 93.2 | 77.5 | 112 | 99.5 | 107 | 108 | 107 | 46.1 | 98.2 | 106 | 68.1 | 78.3 | 64.2 | 93.2 | 95.3 | 107 | 83.4 | 75.8 | 41.6 | 77.8 | 85.8 |
| COc1ccc(C(=O)c2c(C)n(CCN3CCOCC3)c3ccccc23)cc1 | 83.5 | 93.6 | 93.3 | 102 | 99.8 | 105 | 84.3 | 108 | 104 | 108 | 103 | 74.4 | 89 | 88.5 | 88.3 | 91.5 | 93.2 | 77.9 | 85.2 | 87.5 | 72.8 | 66.5 | 95.6 | 88.3 | 97.9 | 93.5 | 97.2 | 97.4 | 96.1 | 83.8 | 102 | 92.1 | 87.8 |
| COc1ccc(OC)c(-c2nnc3ccc(-c4ccc(OC)c(O[C@@H]5CCOC5)c4)nn23)c1 | 105 | 106 | 124 | 115 | 119 | 127 | 125 | 123 | 134 | 119 | 86.4 | – | – | – | – | – | – | – | – | – | – | – | 103 | 109 | 117 | 115 | 116 | 112 | 123 | 131 | 117 | 122 | 89.7 |
| CC\12CCC(=O)\C=C1CCC3C2CCC4(C)C3CCC4(O)C#C (centres undefined) | 105 | 104 | 105 | 99.9 | 113 | 102 | 103 | 117 | 91.1 | 94.9 | 90.5 | 107 | 92.2 | 99.2 | 102 | 94.5 | 106 | 95.7 | 95.8 | 70.7 | 100 | 99 | 112 | 105 | 98.3 | 113 | 117 | 102 | 113 | 98.5 | 97.3 | 106 | 99.9 |
| O=C(CCc1ccc(O)cc1)c1c(O)cc(O)cc1O | 74 | 79.7 | 92 | 95.5 | 89.1 | 95.9 | 115 | 94.5 | 57 | 107 | 100 | 80.8 | 102 | 102 | 85.6 | 86.3 | 97.7 | 105 | 99.4 | 40.2 | 105 | 106 | 96.5 | 90.9 | 89.7 | 90 | 83.6 | 105 | 88.1 | 91 | 62.3 | 102 | 102 |
| Cc1nc2cc(C(=O)N3CCC4(CC3)CC(=O)c3c(cnn3C(C)C)C4)ccc2[nH]1 | 55.6 | 106 | 94.6 | 104 | 111 | 114 | 118 | 105 | 106 | 124 | 109 | – | – | – | – | – | – | – | – | – | – | – | 50 | 109 | 115 | 158 | 110 | 122 | 142 | 122 | 118 | 126 | 51.6 |
